Data from paper PMC11680018, “Study of Cytotoxicity of Spiro-Fused [3-Azabicyclo[3.1.0]hexane]oxindoles and Cyclopropa[a]pyrrolizidine-oxindoles Against Tumor Cell Lines” (Pharmaceuticals, 2024).
Where two headings read alike, the source gives them in different places.

Experiments:
[1] = system: mouse colon carcinoma (CT26) cell line; experiment: MTS cell proliferation assay, CT26; type: cell-based; details: for IC50: Mus musculus, MTS; for SI (selectivity index) CT26: ratio of cytotoxicity PBMC / CT26, calculated at 72 h
Description: (§1) Cancer cell lines are valuable in vitro model systems that are widely used in cancer research and drug discovery. Their use is mainly linked to their possibility to provide for experimental purposes an unlimited source of biological material. Here, the 24 and 72 h in vitro MTS assay was used to determine the antiproliferative activity of synthesized spiro-fused cyclopropa[a]pyrrolizidine-2,3′-oxindoles and [3-azabicyclo[3.1.0]hexane]-oxindoles against human erythroleukemia (K562), acute T cell leukemia (Jurkat), cervical carcinoma (HeLa), melanoma (Sk-mel-2), breast cancer adenocarcinoma (MCF-7) as well as mouse colon carcinoma (CT26) cell lines. […] The full results of these investigations are presented in the Supporting Information Figures S1–S6. […] An evaluation of the cytotoxicity of the selected compounds towards normal cells (peripheral blood mononuclear cells) was performed additionally to understand their respective relative selectivities. The selectivity index was obtained using the ratio of measured cytotoxicity between the PBMC cells and each of the cancer cell lines, and the results are presented in Table 3.
(§2) The human erythroleukemia (K-562), cervical carcinoma (HeLa) as well as mouse colon carcinoma (CT26) cell lines were obtained from the Bank of Cell Cultures of the Institute of Cytology of the Russian Academy of Sciences; the human melanoma (Sk-mel-2) cell line was obtained from the Bank of Cell Cultures of the Institute of Cytology and Genetics, Siberian Branch of the Russian Academy of Sciences. The acute T cell leukemia (Jurkat) cell line was obtained from the Bank of Cell Cultures of the Institute of Immunology of the Russian Academy of Medical Sciences. The peripheral blood mononuclear cells (PBMC) were isolated from the blood of healthy donors. K-562, Jurkat, MCF-7, PBMC and CT26 cells were grown on RPMI medium (Hyclone, GE Healthcare Life Sciences, Logan, UT, USA) supplemented with 10% (v/v) fetal bovine serum (Hyclone, GE Healthcare Life Sciences, Logan, UT, USA) and gentamicin (Sigma-Aldrich, St. Louis, MO, USA) at 37 °C in a humidified atmosphere with 5% CO2. HeLa and Sk-mel-2 cells were cultured with the same supplements and conditions in DMEM medium (Hyclone, GE Healthcare Life Sciences, Logan, UT, USA).
(§3) To evaluate the in vitro toxicity of the compounds synthesized, cells were seeded into 96-well plates at a density of 5 × 10^3 cells per well. On the next day, the tested compounds were added to the wells at concentrations ranging from 1 to 30 μg/mL, followed by incubation for 1 and 3 days. Cell proliferation was determined by adding 20 μL of MTS reagent (BioVision, Milpitas, CA, USA) stock solution per well. The plates were incubated for 2 h at 37 °C in a humidified, 5% CO2 atmosphere. The plates were then read at 495 nm using a plate spectrophotometer (Multiskan GO, Thermo Fisher Scientific, Waltham, MA, USA). All samples were measured in triplicate.

[2] = system: cervical carcinoma (HeLa) cell line; experiment: MTS cell proliferation assay, HeLa; type: cell-based, human; details: for IC50: Homo sapiens, HeLa, MTS; for SI (selectivity index) HeLa: ratio of cytotoxicity PBMC / HeLa, calculated at 72 h
Description: as §1, §2, §3

[3] = system: K562 cells; experiment: Cell cycle analysis by flow cytometry; type: cell-based, human; details: 24 h; for K562 cells in SubG1 phase: control 4.5 ± 0.9; for K562 cells in G2/M phase: control 23.1 ± 1.7; for K562 cells in S phase: control 31.9 ± 1.0; for K562 cells in G0/G1 phase: control 40.5 ± 1.3
From the text: Since growth inhibition may be a result of cell cycle arrest at a particular point, the specific antiproliferative activity of several cycloadducts was further evaluated by flow cytometry to study their impact on the progression of the cell cycle in K562 cells. The assay utilizes propidium iodide-based staining of DNA content to distinguish and measure the accumulation of cells in each cell cycle phase (SubG, G0/G1, S and G2/M).
The distribution of K562 cells in the G0/G1-, S- and G2/M-phases of the cell cycle was obtained by quantification of DNA content using flow cytometry in DAPI-stained cells. Briefly, cells were seeded at a density of 5 × 10^4 cells per well in 24-well plates. […] After incubation with drugs, the cells were harvested by pipetting. This was followed by treatment with 0.2 mg/mL saponin (Fluka, Waltham, MA, USA) and 0.05 mg/mL DAPI (Thermo scientific, Rockford, IL, USA). After washing, the samples were analyzed using a standard flow cytometer (BD FACSCanto II, Becton Dickinson, San Jose, CA, USA). A total of 10,000 events were acquired for the samples. Data processing was performed using the BD FACSDiva 9.0 software.

[4] = system: peripheral blood mononuclear cells (PBMC); experiment: MTS cytotoxicity towards normal cells, PBMC; type: cell-based; details: Homo sapiens
Description: as §1, §2, §3

[5] = system: human erythroleukemia (K562) cell line; experiment: MTS cell proliferation assay, K562; type: cell-based; details: for IC50: Homo sapiens, MTS; for SI (selectivity index) K562: ratio of cytotoxicity PBMC / K562, calculated at 72 h
Description: as §1, §2, §3

[6] = system: breast cancer adenocarcinoma (MCF-7) cell line; experiment: MTS cell proliferation assay, MCF-7; type: cell-based, human; details: for IC50: Homo sapiens, MTS; for SI (selectivity index) MCF-7: ratio of cytotoxicity PBMC / MCF-7, calculated at 72 h
Description: as §1, §2, §3

[7] = system: melanoma (Sk-mel-2) cell line; experiment: MTS cell proliferation assay, Sk-mel-2; type: cell-based, human; details: for IC50: Homo sapiens, MTS; for SI (selectivity index) Sk-mel-2: ratio of cytotoxicity PBMC / Sk-mel-2, calculated at 72 h
Description: as §1, §2, §3

[8] = system: acute T cell leukemia (Jurkat) cell line; experiment: MTS cell proliferation assay, Jurkat; type: cell-based, human; details: for IC50: Homo sapiens, Jurkat, MTS; for SI (selectivity index) Jurkat: ratio of cytotoxicity PBMC / Jurkat, calculated at 72 h
Description: as §1, §2, §3

[9] = system: human melanoma (Sk-mel-2) cell line; experiment: Cell motility by scratch test; type: cell-based; details: 10 μg/mL, 36 h, serum-free DMEM; nontreated cells 69.5 ± 17.2
Description: To assess the potential ability of spiro-fused [3-azabicyclo[3.1.0]hexane]oxindoles 4, 11, 12, 18, 24 and cyclopropa[a]pyrrolizidine-2,3′-oxindole 2 to inhibit metastasis associated with cell motility, a scratch test was performed on the human melanoma (Sk-mel-2) cell line. Different fields were analyzed by bright field, and each scratch area was photographed at 0 and 36 h for non-toxic and fast cell visualization. Nontreated Sk-mel-2 cells filled 69.5 ± 17.2, 41.5 ± 5.3, 59.7 ± 8.1, 49.3 ± 5.3, 43.0 ± 12.6, 26.1 ± 2.5 and 55.9 ± 8.6% of the scratched strip while under treatment with spiro-fused oxindole derivatives 2, 4, 11, 12, 18 and 24 cells, respectively.
Cells were seeded at a density of 5 × 10^5 cells per dish onto petri dishes and grown to confluency. A 200 μL pipette tip was used to make scratch wounds and detached cells were removed after that by washing with phosphate-buffered saline. Culture media was replaced with serum-free DMEM in order to inhibit cell proliferation. Compounds to be screened were added at a dose of 10 μg/mL to the cultures and incubated for 36 h. Different fields were analyzed by bright field, and each scratch area was photographed at 0 and 36 h. Images were captured using an Axio Observer Z1 confocal microscope (Carl Zeiss MicroImaging GmbH, Jena, Germany). The percent of wound closure in five randomly chosen fields was calculated with ImageJ software, 1.52v.

[10] = system: HeLa cells actin cytoskeleton; experiment: Actin cytoskeleton staining, confocal microscopy, HeLa; type: cell-based, human; details: 10 μg/mL, 24 h
Description: It was found using confocal microscopy that incubation with spiro-fused [3-azabicyclo[3.1.0]hexane]oxindoles 4, 8, 17, 18, 22, 24 and cyclopropa[a]pyrrolizidine-2,3′-oxindole 2 led to significant changes in the HeLa cells’ actin cytoskeleton structure leading to the disappearance of stress fibers (granular actin was distributed diffusely in the cytoplasm in up to 38% of treated cells) and changes in the number of filopodia-like deformations (reduced from 93% in control cells to 64% after treatment). The impact on the Sk-mel-2 cells’ actin cytoskeleton structure was even greater: granular actin was distributed diffusely in the cytoplasm in up to 90% of treated cells while the number of filopodia-like deformations was reduced by up to 23%. Such changes in the cytoskeleton may indicate a change in the motor activity of cells, which may indicate a decrease in the ability of tumor cells to metastasize.
HeLa cells were seeded at a density of 2 × 10^5 cells per dish onto a petri dish with cover slips and incubated for 24 h. After that, cells were treated with chosen compounds (10 μg/mL) for 24 h. The medium was removed and cells were fixed with 4% paraformaldehyde (Sigma-Aldrich, St. Louis, MO, USA), washed three times with PBS, and permeabilized with 0.3% Triton-X100 (Sigma-Aldrich, St. Louis, MO, USA). The cells were rinsed three times with PBS. Actin filaments (microfilaments) were stained with rhodamine–phalloidin (Invitrogen, Carlsbad, CA, USA) at 37 °C for 15 min. The samples were rinsed three times with PBS, followed by embedding in Fluoroshield medium (Sigma-Aldrich, St. Louis, MO, USA). Cells were imaged using an Axio Observer Z1 confocal microscope (Carl Zeiss MicroImaging GmbH, Jena, Germany). In each experiment, at least 30 cells were imaged. Images were analyzed by a pathologist blinded to the treatment mode used for each group using ImageJ software, 1.52v.

[11] = read-out: IC50 CT26 24 h, CT26, 24 h
[12] = CT26, 72 h, read-out: IC50 CT26 72 h
[13] = read-out: IC50 K562 24 h, K562, 24 h
[14] = K562, 72 h, read-out: IC50 K562 72 h
[15] = MCF7, read-out: IC50 MCF-7 24 h, MCF-7, 24 h
[16] = MCF7, MCF-7, 72 h, read-out: IC50 MCF-7 72 h
[17] = read-out: IC50 Sk-mel-2 24 h, Sk-mel-2, 24 h
[18] = Sk-mel-2, 72 h, read-out: IC50 Sk-mel-2 72 h
[19] = read-out: IC50 Jurkat 24 h, 24 h
[20] = 72 h, read-out: IC50 Jurkat 72 h

Row | SMILES | IC50 [1, 11] [µM] | IC50 [1, 12] [µM] | SI (selectivity index) CT26 [1] | IC50 ([2]; read-out: IC50 HeLa 24 h, 24 h) [µM] | IC50 ([2]; 72 h, read-out: IC50 HeLa 72 h) [µM] | SI (selectivity index) HeLa [2] | IC50 ([4]; 72 h, read-out: IC50 PBMC 72 h) [µM] | IC50 ([4]; read-out: IC50 PBMC 24 h, 24 h) [µM] | IC50 [5, 13] [µM] | IC50 [5, 14] [µM] | SI (selectivity index) K562 [5] | IC50 [6, 15] [µM] | IC50 [6, 16] [µM] | SI (selectivity index) MCF-7 [6] | IC50 [7, 17] [µM] | IC50 [7, 18] [µM] | SI (selectivity index) Sk-mel-2 [7] | IC50 [8, 19] [µM] | IC50 [8, 20] [µM] | SI (selectivity index) Jurkat [8] | further results
1 | COc1cccc2c1C(=O)c1c(O)c3c(c(O)c1C2=O)C[C@@](O)(C(=O)CO)C[C@@H]3O[C@H]1C[C@H](N)[C@H](O)[C@H](C)O1 [Doxorubicin, reference compound] | 19 ± 3 | 6 ± 1 | 2 | 4 ± 1 | 1 ± 0.1 | 9 | 9 ± 1 | 11 ± 1 | 16 ± 3 | 1 ± 0.4 | 9 | – | – | – | – | – | – | – | – | – | K562 cells in SubG1 phase ([3]; 1 μg/mL): 43.0 ± 1.0%; K562 cells in G2/M phase ([3]; 1 μg/mL): 2.2 ± 0.3%; K562 cells in S phase ([3]; 1 μg/mL): 8.8 ± 1.7%; K562 cells in G0/G1 phase ([3]; 1 μg/mL): 45.6 ± 0.8%; K562 cells in SubG1 phase ([3]; 5 μg/mL): 93.1 ± 0.7%; K562 cells in G2/M phase ([3]; 5 μg/mL): 0.2 ± 0.1%; K562 cells in S phase ([3]; 5 μg/mL): 0.8 ± 0.1%; K562 cells in G0/G1 phase ([3]; 5 μg/mL): 5.9 ± 0.6%
2 | CC[C@H](C)C1NC2(C(=O)Nc3ccccc32)C2(c3ccccc3)C(c3ccccc3)C12c1ccccc1 (some centres unmarked) [Compound 23] | > 40 | > 40 | 3 | > 40 | > 40 | 3 | 165 ± 16 | 177 ± 20 | > 40 | 21 ± 2 | 8 | > 40 | > 40 | 3 | > 40 | > 40 | 3 | 25 ± 2 | 12 ± 1 | 13 | –
3 | COC(=O)C1C2(c3ccccc3)C(Cc3c[nH]c4ccccc34)NC3(C(=O)Nc4ccccc43)C12c1ccccc1 (centres unmarked) [Compound 11] | > 40 | 19 ± 2 | – | 15 ± 2 | 22 ± 2 | – | – | – | 7 ± 1 | 7 ± 1 | – | – | – | – | 33 ± 3 | 15 ± 1 | – | – | – | – | Part of the scratched strip filled by Sk-mel-2 cells [9]: 49.3 ± 5.3%
4 | CC(C)CC1NC2(C(=O)Nc3ccccc32)C2(c3ccccc3)C(c3ccccc3)C12c1ccccc1 (centres unmarked) [Compound 22] | > 40 | 39 ± 3 | 2 | > 40 | 23 ± 2 | 3 | 64 ± 6 | 132 ± 16 | > 40 | 12 ± 1 | 5 | > 40 | > 40 | 1 | > 40 | 23 ± 2 | 3 | 21 ± 2 | 4 ± 1 | 16 | HeLa cells with filopodia-like deformations ([10]; control cells 93%, lowest value over the compounds): ≥ 64%; HeLa cells with granular actin distributed diffusely in the cytoplasm (stress fibers disappeared) ([10]; maximum over the compounds): up to 38%
5 | COC(=O)C1C2(c3ccccc3)C3CCCN3C3(C(=O)Nc4ccc(Cl)cc43)C12c1ccccc1 (centres unmarked) [Compound 12] | – | – | – | – | – | – | – | – | – | – | – | – | – | – | – | – | – | – | – | – | Part of the scratched strip filled by Sk-mel-2 cells [9]: 43.0 ± 12.6%
